Target: T1, human GR (Homo sapiens, UniProt P04150)
T1 construct: naturally expresses the human GR; endogenous in cells
T1 sequence (P04150 1-777): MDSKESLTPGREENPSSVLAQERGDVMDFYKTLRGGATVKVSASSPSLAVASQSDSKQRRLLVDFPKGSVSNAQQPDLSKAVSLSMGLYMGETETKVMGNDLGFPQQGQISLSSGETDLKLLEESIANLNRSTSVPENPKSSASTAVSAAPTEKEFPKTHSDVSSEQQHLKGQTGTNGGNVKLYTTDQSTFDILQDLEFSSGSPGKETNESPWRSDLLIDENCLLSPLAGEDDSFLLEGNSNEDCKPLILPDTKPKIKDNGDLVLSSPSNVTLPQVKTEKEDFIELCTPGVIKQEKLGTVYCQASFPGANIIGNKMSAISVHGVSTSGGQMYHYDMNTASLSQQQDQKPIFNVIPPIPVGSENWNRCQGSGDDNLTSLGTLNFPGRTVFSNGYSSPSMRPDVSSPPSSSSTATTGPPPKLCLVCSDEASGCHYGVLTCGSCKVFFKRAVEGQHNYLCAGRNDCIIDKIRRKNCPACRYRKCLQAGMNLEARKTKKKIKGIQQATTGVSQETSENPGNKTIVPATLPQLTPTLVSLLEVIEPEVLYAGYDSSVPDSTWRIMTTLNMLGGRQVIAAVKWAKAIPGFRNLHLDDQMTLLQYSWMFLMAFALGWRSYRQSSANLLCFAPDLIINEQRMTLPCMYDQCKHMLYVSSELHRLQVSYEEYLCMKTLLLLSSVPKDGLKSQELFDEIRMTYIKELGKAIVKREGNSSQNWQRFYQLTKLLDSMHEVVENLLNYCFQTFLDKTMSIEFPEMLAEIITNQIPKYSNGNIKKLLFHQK
Assay: Transrepression assay (GITAR), TNFα-β-lactamase reporter in U937 cells
Assay type: cell-based
Conditions: for EC50: IP = inflection point; for Emax: U-937, U937 cells
Excerpt: Transrepression Assay (GITAR)
This assay assesses the ability of test compounds to control transcription from the TNFα-β-lactamase reporter gene in U937 cells, a human myelomonocytic leukemia cell line that naturally expresses the human GR. The assay measures compound dependent-repression of the TNFa promoter linked to a reporter gene.
The human U937 cells that had been stablely transfected with the TNF-a promoter driving ˜-lactamase are used for this assay. U937 cells contain an endogenous glucocorticoid receptor (GR). Cells are maintained in RPMI 1640 Growth medium (GibcoCat#11875-093) containing 25 mM HEPES, 10% FBS, 2 mM L-Glutamine, 1 mM Sodium pyruvate, 25 μg/ml Gentamicin (Gibed Cat#1571 0-064), 1:1000 2-Mercaptoethanol (Gibco Cat#21985-023) and 0.8 mg/ml G418 (Gibco Cat#10131-027). The density of the cells in the flask needs to be about 1×10^6-3×10^6/ml at the time of harvest. Usually, the cells are split to 1.2˜1.4×10^5/ml (1:10) 3 days prior to the assay. 50,000 cells/well are plated in 96 well black-walled plates the day of assay. Test compounds are added 10 J.lL/well, and cells are incubated at 37° C. for 30˜45 min. For assaying compounds, first dilute 1:10 in DMSO to make 1 mM, then further dilute 1:100 in medium to make 10× stock prior to adding to the cells. Add 50 ng/ml PMA (Sigma, cat#P8139) 10 μL/well to a final concentration 5 ng/ml, and 1 μg/ml LPS (Sigma, cat#L4130) 10 μL/well to a final concentration 100 ng/ml. Incubate cells at 370 C overnight for −18 hr. PMA is stored frozen as […] in DMSO. Dilute 1:10 in DMSO for a working stock of 10 μg/ml and store at −20° C. For assaying, dilute the 10 μg/ml working stock 1:200 in medium to make a 10× solution (50 ng/ml). Store frozen LPS at 1 mg/ml in PBS, dilute 1:1000 in medium to make 10×μg/ml) for the assay. Add 6× loading buffer (CCF2-AM) 20 μL/well, and incubate at room temperature for 70-90 min. […] The activity repressed by 100 nM dexamethasone alone is set as 100% activity.

[1] = activity repressed by 100 nM dexamethasone alone set as 100%

| EC50 (U937 cells) [nM] | Emax [1] [%] | Transrepression U937 Cells GITAR Emax (%) (U937 cells, activity repressed by 100 nM dexamethasone alone set as 100%) | Compound |
| --- | --- | --- | --- |
| 95 | 87 | – | CC[C@]12Cc3cnn(-c4ccc(F)cc4)c3C=C1CC[C@@]2(O)CCc1cncc(F)c1 [Example 21, (4aS,5R)-4a-Ethyl-1-(4-fluorophenyl)-5-[2-(5-fluoropyridin-3-yl)ethyl]-1,4,4a,5,6,7-hexahydrocyclopenta[f]indazol-5-ol] |
| 148 | 89 | – | CC[C@]12Cc3cnn(-c4ccc(F)cc4)c3C=C1CC[C@@]2(O)CCc1ccccc1CCC(N)=O [Example 22, 3-(2-{2-[(4aS,5R)-4a-Ethyl-1-(4-fluorophenyl)-5-hydroxy-1,4,4a,5,6,7-hexahydrocyclopenta[f]indazol-5-yl]ethyl}phenyl)propanamide] |
| 22 | 77 | – | NC(=O)c1ccccc1CC[C@]1(O)CCC2=Cc3c(cnn3-c3ccc(F)cc3)C[C@@]21C1CC1 [Example 23, 2-{2-[(4aR,5R)-4a-Cyclopropyl-1-(4-fluorophenyl)-5-hydroxy-1,4,4a,5,6,7-hexahydrocyclopenta[f]indazol-5-yl]ethyl}benzamide] |
| 118 | 74 | – | CC[C@]12Cc3cnn(-c4ccc(F)cc4)c3C=C1CC[C@@]2(O)CCc1ccccc1C(O)C(N)=O (stereo partly drawn) [Example 25, 2-(2-{2-[(4aS,5R)-4a-Ethyl-1-(4-fluorophenyl)-5-hydroxy-1,4,4a,5,6,7-hexahydrocyclopenta[f]indazol-5-yl]ethyl}phenyl)-2-hydroxyacetamide] |
| 51 | – | 86 | CC[C@]12Cc3cnn(-c4ccc(F)cc4)c3C=C1CC[C@@]2(O)CCc1ccccc1C(O)C(N)=O (stereo partly drawn) [Example 26, 2-(2-{2-[(4aS,5R)-4a-Ethyl-1-(4-fluorophenyl)-5-hydroxy-1,4,4a,5,6,7-hexahydrocyclopenta[f]indazol-5-yl]ethyl}phenyl)-2-hydroxyacetamide] |
| 84 | 82 | – | CC[C@]12Cc3cnn(-c4ccc(F)cc4)c3C=C1CC[C@@]2(O)CCc1cc(C)ccn1 [Example 33, (4aS,5R)-4a-Ethyl-1-(4-fluorophenyl)-5-[2-(4-methylpyridin-2-yl)ethyl]-1,4,4a,5,6,7-hexahydrocyclopenta[f]indazol-5-ol] |
| 8 | 90 | – | CC[C@]12Cc3cnn(-c4ccc(F)cc4)c3C=C1CC[C@@]2(O)CCc1cccc(OC)c1C(N)=O [Example 37, 2-{2-[(4aS,5R)-4a-Ethyl-1-(4-fluorophenyl)-5-hydroxy-1,4,4a,5,6,7-hexahydrocyclopenta[f]indazol-5-yl]ethyl}-6-methoxybenzamide] |
| 38 | 83 | – | CC[C@]12Cc3cnn(-c4ccc(F)cc4)c3C=C1CC[C@@]2(O)CCc1ccccc1S(=O)(=O)C(C)C [Example 40, (4aS,5R)-4a-Ethyl-1-(4-fluorophenyl)-5-{2-[2-(propan-2-ylsulfonyl)phenyl]ethyl}-1,4,4a,5,6,7-hexahydrocyclopenta[f]indazol-5-ol] |

Continued, molecule first:

| Compound | EC50 (U937 cells) [nM] | Emax [1] [%] | Transrepression U937 Cells GITAR Emax (%) (U937 cells, activity repressed by 100 nM dexamethasone alone set as 100%) |
| --- | --- | --- | --- |
| NS(=O)(=O)c1ccccc1CC[C@]1(O)CCC2=Cc3c(cnn3-c3cccnc3)C[C@@]21C1CC1 [Example 24, 2-{2-[(4aR,5R)-4a-Cyclopropyl-5-hydroxy-1-(pyridin-3-yl)-1,4,4a,5,6,7-hexahydrocyclopenta[f]indazol-5-yl]ethyl}benzenesulfonamide] | 7 | 83 | – |
| N#Cc1ccccc1CC[C@]1(O)CCC2=Cc3c(cnn3-c3ccccc3)C[C@@]21C1CC1 [Example 27, 2-{2-[(4aR,5R)-4a-Cyclopropyl-5-hydroxy-1-phenyl-1,4,4a,5,6,7-hexahydrocyclopenta[f]indazol-5-yl]ethyl}benzonitrile] | 51 | 86 | – |
| N#Cc1c(F)cccc1CC[C@]1(O)CCC2=Cc3c(cnn3-c3ccccc3)C[C@@]21C1CC1 [Example 28, 2-{2-[(4aR,5R)-4a-Cyclopropyl-5-hydroxy-1-phenyl-1,4,4a,5,6,7-hexahydrocyclopenta[f]indazol-5-yl]ethyl}-6-fluorobenzonitrile] | 122 | 88 | – |
| NC(=O)c1ccccc1CC[C@]1(O)CCC2=Cc3c(cnn3-c3ccccc3)C[C@@]21C1CC1 [Example 29, 2-{2-[(4aR,5R)-4a-Cyclopropyl-5-hydroxy-1-phenyl-1,4,4a,5,6,7-hexahydrocyclopenta[f]indazol-5-yl]ethyl}benzamide] | 47 | 69 | – |
| N#Cc1ccccc1CC[C@]1(O)CCC2=Cc3c(cnn3-c3cccnc3)C[C@@]21C1CC1 [Example 30, 2-{2-[(4aR,5R)-4a-Cyclopropyl-5-hydroxy-1-(pyridin-3-yl)-1,4,4a,5,6,7-hexahydrocyclopenta[f]indazol-5-yl]ethyl}benzonitrile] | 178 | 63 | – |
| N#Cc1cccnc1CC[C@]1(O)CCC2=Cc3c(cnn3-c3ccc(F)cc3)C[C@@]21C1CC1 [Example 31, 2-{2-[(4aR,5R)-4a-Cyclopropyl-1-(4-fluorophenyl)-5-hydroxy-1,4,4a,5,6,7-hexahydrocyclopenta[f]indazol-5-yl]ethyl}pyridine-3-carbonitrile] | 13 | 89 | – |
| O[C@@]1(CCc2cc(C(F)(F)F)ccn2)CCC2=Cc3c(cnn3-c3ccc(F)cc3)C[C@@]21C1CC1 [Example 32, (4aR,5R)-4a-Cyclopropyl-1-(4-fluorophenyl)-5-{2-[4-(trifluoromethyl)pyridin-2-yl]ethyl}-1,4,4a,5,6,7-hexahydrocyclopenta[f]indazol-5-ol] | 266 | 83 | – |
| CC[C@]12Cc3cnn(-c4ccc(F)cc4)c3C=C1CC[C@@]2(O)CCc1cc(C(F)(F)F)ccn1 [Example 34, (4aS,5R)-4a-Ethyl-1-(4-fluorophenyl)-5-{2-[4-(trifluoromethyl)pyridin-2-yl]ethyl}-1,4,4a,5,6,7-hexahydrocyclopenta[f]indazol-5-ol] | 125 | 85 | – |
| N#Cc1ccnc(CC[C@]2(O)CCC3=Cc4c(cnn4-c4ccc(F)cc4)C[C@@]32C2CC2)c1 [Example 35, 2-{2-[(4aR,5R)-4a-Cyclopropyl-1-(4-fluorophenyl)-5-hydroxy-1,4,4a,5,6,7-hexahydrocyclopenta[f]indazol-5-yl]ethyl}pyridine-4-carbonitrile] | 73 | 87 | – |
| Cc1ccnc(CC[C@]2(O)CCC3=Cc4c(cnn4-c4ccc(F)cc4)C[C@@]32C2CC2)c1 [Example 36, (4aR,5R)-4a-Cyclopropyl-1-(4-fluorophenyl)-5-[2-(4-methylpyridin-2-yl)ethyl]-1,4,4a,5,6,7-hexahydrocyclopenta[f]indazol-5-ol] | 114 | 72 | – |
| COc1cccc(CC[C@]2(O)CCC3=Cc4c(cnn4-c4ccc(F)cc4)C[C@@]32C2CC2)c1C(N)=O [Example 38, 2-{2-[(4aR,5R)-4a-Cyclopropyl-1-(4-fluorophenyl)-5-hydroxy-1,4,4a,5,6,7-hexahydrocyclopenta[f]indazol-5-yl]ethyl}-6-methoxybenzamide] | 11 | 74 | – |
| NC(=O)c1cc(F)ccc1CC[C@]1(O)CCC2=Cc3c(cnn3-c3ccc(F)cc3)C[C@@]21C1CC1 [Example 39, 2-{2-[(4aR,5R)-4a-Cyclopropyl-1-(4-fluorophenyl)-5-hydroxy-1,4,4a,5,6,7-hexahydrocyclopenta[f]indazol-5-yl]ethyl}-5-fluorobenzamide] | 83 | 71 | – |
